Laboratory results from US8426447B2, “Spiro-tricyclic ring compounds as beta-secretase modulators and methods of use” (Amgen Inc., priority 2008, dated 2013).
Blank lines part the entries; values can stand above or below the molecule they belong to.

Tests used:
BACE1 [1] = molecular target: T1, BACE1 (Homo sapiens, UniProt P56817); assay: In Vitro BACE Cell-based Assay (HEK cell assay): Aβ40 in conditioned medium of cells stably expressing Amyloid Precursor Protein, sandwich ELISA
How it was run: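 Read-out is time-resolved fluorescence of Aβ40 in supernatant, captured by pAb40 and detected with biotinylated 6E10 plus Streptavidin-Europium. Cells stably expressing APP received compounds for 24 h over 10 concentrations starting at 100 μM or 10 μM, final DMSO 0.1%.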

BACE1 [2] = molecular target: T1, BACE1; assay: In Vitro Enzymatic BACE FRET (Fluorescence Resonance Energy Transfer) Assay; assay type: biochemical
How it was run: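 Fluorescence read-out after Tris addition raises pH to neutrality and ends the reaction. Before that, a peptide substrate carrying fluorophore and quencher across the BACE cleavage site (50 nM) is incubated with enzyme for one hour at pH 4.2 in acetate containing 10% DMSO and sub-micellar genapol.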

[3] = Table III, IC50's in uM ranges, read-out: HEK cell assay
[4] = Table III, IC50's in uM ranges, read-out: BACE1 FRET assay
[5] = Table IV, class symbols, read-out: HEK cell assay
[6] = Table IV, class symbols, read-out: BACE1 FRET assay
[7] = HEK cells, read-out: HEK cell assay

T1 sequence (P56817 46-501, species assumed): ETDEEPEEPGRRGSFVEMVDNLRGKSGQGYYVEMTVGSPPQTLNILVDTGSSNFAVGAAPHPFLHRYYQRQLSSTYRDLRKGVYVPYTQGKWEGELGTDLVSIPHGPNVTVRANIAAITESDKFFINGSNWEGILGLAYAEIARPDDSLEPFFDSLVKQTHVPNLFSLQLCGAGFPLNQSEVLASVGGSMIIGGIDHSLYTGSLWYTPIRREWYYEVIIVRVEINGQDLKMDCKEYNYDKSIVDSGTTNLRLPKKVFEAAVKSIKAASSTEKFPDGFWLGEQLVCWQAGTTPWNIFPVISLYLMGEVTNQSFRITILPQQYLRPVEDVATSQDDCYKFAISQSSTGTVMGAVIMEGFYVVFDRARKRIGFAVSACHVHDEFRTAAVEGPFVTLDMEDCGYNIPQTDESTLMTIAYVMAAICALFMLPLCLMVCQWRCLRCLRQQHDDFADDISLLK

- IC50 (BACE1 [1]; HEK cell assay (uM), HEK cells): < 0.1 µM
- IC50 (BACE1 [2]; BACE1 FRET assay (uM)): < 0.1 µM
SMILES: NC1=N[C@@]2(CO1)c1cc(-c3cccnc3F)ccc1Oc1cnc(-c3ccccc3)cc12 [compound 494]

- IC50 (BACE1 [1]; [5]): 1 to 5 µM
- IC50 (BACE1 [2]; [6]): 0.1 to 1 µM
SMILES: CCCOc1cc2c(cc1F)Oc1ccc(-c3ccc(F)nc3)cc1[C@]21COC(N)=N1 [compound 921]

- IC50 (BACE1 [1]; read-out: HEK cell assay): 0.1 to 1 µM
- IC50 (BACE1 [2]; read-out: BACE1 FRET assay): < 0.1 µM
SMILES: CC(C)(O)COc1ccc2c(c1C#N)[C@]1(COC(N)=N1)c1cc(-c3cccnc3)ccc1O2 [compound 929]

- IC50 (BACE1 [1]; [3]): < 0.1 µM
- IC50 (BACE1 [2]; [4]): < 0.1 µM
SMILES: NC1=N[C@]2(CO1)c1cc(C#CCCO)ccc1Oc1ccc(-c3cccnc3)cc12 [compound 183]

- IC50 (BACE1 [1]; [5]): < 0.1 µM
- IC50 (BACE1 [2]; [6]): < 0.1 µM
SMILES: COC(C)(C)COc1cc2c(cc1F)Oc1ccc(-c3cccnc3)cc1[C@@]21COC(N)=N1 [compound 544]

- IC50 (BACE1 [1]; [5]): 1 to 5 µM
- IC50 (BACE1 [2]; [6]): 0.1 to 1 µM
SMILES: Cn1cc(-c2ccc3c(c2)[C@]2(COC(N)=N2)c2cc(Br)ccc2O3)cn1 [compound 638]

- IC50 (BACE1 [1]; [3]): 0.1 to 1 µM
- IC50 (BACE1 [2]; [4]): < 0.1 µM
SMILES: CC(C)OCCOc1ccc2c(c1)[C@]1(COC(N)=N1)c1cc(-c3cncnc3)ccc1O2 [compound 180]

The remaining lines, values behind:

SMILES: CC(C)(O)C#Cc1ccc2c(c1)[C@@]1(COC(N)=N1)c1cc(Br)cnc1O2 [compound 173]
- IC50 (BACE1 [1]; [3]): > 5 µM
- IC50 (BACE1 [2]; [4]): 1 to 5 µM

SMILES: NC1=N[C@]2(CO1)c1cc(OC3CCC3)ccc1Oc1ccc(-c3cccnc3)cc12 [compound 195]
- IC50 (BACE1 [1]; [3]): 0.1 to 1 µM
- IC50 (BACE1 [2]; [4]): < 0.1 µM

SMILES: NC1=N[C@]2(CO1)c1cc(-c3ccc(OC(F)(F)F)cc3)ccc1Oc1ccc(-c3cncnc3)cc12 [compound 840]
- IC50 (BACE1 [1]; [5]): 0.1 to 1 µM
- IC50 (BACE1 [2]; [6]): < 0.1 µM

SMILES: Cc1nn(C)c(C)c1-c1ccc2c(c1)[C@@]1(COC(N)=N1)c1cc(OCC(C)(C)C)ccc1O2 [compound 213]
- IC50 (BACE1 [1]; [3]): 1 to 5 µM
- IC50 (BACE1 [2]; [4]): 0.1 to 1 µM

SMILES: NC1=N[C@@]2(CO1)c1cc(-c3cncnc3)ccc1Oc1ccc([C@@H]3CCOC3)cc12 [compound 420]
- IC50 (BACE1 [1]; [7]): 0.1 to 1 µM
- IC50 (BACE1 [2]; read-out: BACE1 FRET assay): < 0.1 µM

SMILES: C[C@](O)(C#Cc1ccc2c(c1)[C@]1(COC(N)=N1)c1cc(-c3cccnc3)ccc1O2)C(F)(F)F [compound 698]
- IC50 (BACE1 [1]; read-out: HEK cell assay): < 0.1 µM
- IC50 (BACE1 [2]; read-out: BACE1 FRET assay): < 0.1 µM

SMILES: NC1=N[C@@]2(CO1)c1cc(-c3cncnc3)ccc1Oc1c(F)cc(OCC3CCOCC3)cc12 [compound 417]
- IC50 (BACE1 [1]; HEK cell-based assay, Aβ40 in conditioned medium, IC50 class symbols, read-out: HEK cell assay): < 0.1 µM
- IC50 (BACE1 [2]; in vitro BACE FRET enzyme assay, IC50 class symbols, read-out: BACE1 FRET assay): < 0.1 µM

SMILES: CC(C)(C)COc1ccc2c(c1)[C@@]1(COC(N)=N1)c1cc(-c3ncccn3)ccc1O2 [compound 186]
- IC50 (BACE1 [1]; [3]): < 0.1 µM
- IC50 (BACE1 [2]; [4]): < 0.1 µM

SMILES: CC(C)(C)CCc1ccc2c(c1)[C@]1(COC(N)=N1)c1cc(-c3cccnc3)cnc1O2 [182b]
- IC50 (BACE1 [1]; [3]): 0.1 to 1 µM
- IC50 (BACE1 [2]; [4]): < 0.1 µM

SMILES: CC(C)(C)COc1cnc2c(c1)[C@]1(COC(N)=N1)c1cc(-c3ccccc3)ccc1O2 [compound 469]
- IC50 (BACE1 [1]; [7]): 0.1 to 1 µM
- IC50 (BACE1 [2]; read-out: BACE1 FRET assay): < 0.1 µM

SMILES: CC(C)Oc1ccc(-c2cc3c(cn2)Oc2ccc(-c4cccnc4)cc2[C@@]32COC(N)=N2)cc1 [compound 851]
- IC50 (BACE1 [1]; [5]): 0.1 to 1 µM
- IC50 (BACE1 [2]; [6]): < 0.1 µM

SMILES: CC(C)(C)COc1ccc2c(c1)[C@@]1(COC(N)=N1)c1cc(C(=O)N3CCCC3)ccc1O2 [218a]
- IC50 (BACE1 [1]; [3]): 1 to 5 µM
- IC50 (BACE1 [2]; [4]): 0.1 to 1 µM

SMILES: NC1=N[C@@]2(CO1)c1cc(-c3ccccc3F)ccc1Oc1cnc(C3=CCOCC3)cc12 [compound 426]
- IC50 (BACE1 [1]; [7]): 0.1 to 1 µM
- IC50 (BACE1 [2]; read-out: BACE1 FRET assay): < 0.1 µM

SMILES: COc1cncc(-c2ccc3c(c2)[C@@]2(COC(N)=N2)c2cc(C#CC(C)(C)C)cnc2O3)c1 [compound 643]
- IC50 (BACE1 [1]; [5]): < 0.1 µM
- IC50 (BACE1 [2]; [6]): < 0.1 µM

SMILES: COc1ccc2c(c1)C1(COC(N)=N1)c1cc(-c3ccccc3Cl)ccc1O2 (centres unmarked) [Example 28, 2′-(2-chlorophenyl)-7′-methoxyspiro[1,3-oxazole-4,9′-xanthen]-2-amine]
- IC50 (BACE1 [1]; Table 1, Aβ40, 24 h incubation, read-out: HEK cell assay): 1 to 5 µM
- IC50 (BACE1 [2]; Table 1, read-out: BACE1 FRET assay): > 5 µM
